Biological target: BTK (Homo sapiens (Human), UniProt Q06187)
Assay: Btk in vitro inhibitory activity (one of Method A TR-FRET, Method B electrophoretic mobility shift, Method C radiometric filter binding)
Format: biochemical
Settings: determined using one of the methods of Example 355a, 355b and 355c; read-out: BTK IC50

Sequence of BTK (Q06187 whole entry): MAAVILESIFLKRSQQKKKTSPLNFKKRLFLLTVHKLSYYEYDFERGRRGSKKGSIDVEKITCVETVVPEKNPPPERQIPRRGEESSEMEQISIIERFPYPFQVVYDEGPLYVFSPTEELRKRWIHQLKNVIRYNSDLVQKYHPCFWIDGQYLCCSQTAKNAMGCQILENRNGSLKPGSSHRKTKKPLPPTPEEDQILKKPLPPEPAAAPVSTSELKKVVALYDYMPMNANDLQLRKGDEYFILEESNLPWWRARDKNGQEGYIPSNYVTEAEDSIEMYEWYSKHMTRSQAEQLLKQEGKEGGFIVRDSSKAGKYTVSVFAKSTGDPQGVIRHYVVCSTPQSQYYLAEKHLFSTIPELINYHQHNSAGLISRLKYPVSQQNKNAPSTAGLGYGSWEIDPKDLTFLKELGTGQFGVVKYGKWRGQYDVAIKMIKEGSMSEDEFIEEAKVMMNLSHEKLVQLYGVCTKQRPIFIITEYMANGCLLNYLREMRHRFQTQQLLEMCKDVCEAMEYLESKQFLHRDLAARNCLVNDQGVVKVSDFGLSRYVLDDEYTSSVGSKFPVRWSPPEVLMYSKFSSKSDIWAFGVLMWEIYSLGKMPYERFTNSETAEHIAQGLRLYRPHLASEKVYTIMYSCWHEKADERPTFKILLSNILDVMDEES

SMILES | IC50 [nM]
NC(=O)c1nnc(N2CCC[C@@H](NC(=O)c3ccc(Cl)cc3)C2)nc1Nc1ccc(C(=O)N2CCOCC2)cc1 [Example 8, (R)-3-(3-(4-chlorobenzamido)piperidin-1-yl)-5-(4-(morpholine-4-carbonyl)phenylamino)-1,2,4-triazine-6-carboxamide] | < 10
NC(=O)c1nnc(N2CCC[C@@H](NC(=O)c3ccc(F)cc3)C2)nc1Nc1ccc(C(=O)N2CCOCC2)cc1 [Example 9, (R)-3-(3-(4-fluorobenzamido)piperidin-1-yl)-5-(4-(morpholine-4-carbonyl)phenylamino)-1,2,4-triazine-6-carboxamide] | < 10
COc1ccc(C(=O)N[C@@H]2CCCN(c3nnc(C(N)=O)c(Nc4ccc(C(=O)N5CCOCC5)cc4)n3)C2)cc1 [Example 10, (R)-3-(3-(4-methoxybenzamido)piperidin-1-yl)-5-(4-(morpholine-4-carbonyl)phenylamino)-1,2,4-triazine-6-carboxamide] | < 10
NC(=O)c1nnc(N2CCC[C@@H](NC(=O)c3ccc(C4CC4)cc3)C2)nc1Nc1ccc(C(=O)N2CCOCC2)cc1 [Example 11, (R)-3-(3-(4-cyclopropylbenzamido)piperidin-1-yl)-5-(4-(morpholine-4-carbonyl)phenylamino)-1,2,4-triazine-6-carboxamide] | < 10
NC(=O)c1nnc(N2CCC[C@@H](NC(=O)c3ccccn3)C2)nc1Nc1ccc(C(=O)N2CCOCC2)cc1 [Example 12, (R)-5-(4-(morpholine-4-carbonyl)phenylamino)-3-(3-(picolinamido)piperidin-1-yl)-1,2,4-triazine-6-carboxamide] | < 10
NC(=O)c1nnc(N2CCC[C@@H](NC(=O)c3cccnc3)C2)nc1Nc1ccc(C(=O)N2CCOCC2)cc1 [Example 13, (R)-5-(4-(morpholine-4-carbonyl)phenylamino)-3-(3-(nicotinamido)piperidin-1-yl)-1,2,4-triazine-6-carboxamide] | 10 to 100
NC(=O)c1nnc(N2CCC[C@@H](NC(=O)c3ccncc3)C2)nc1Nc1ccc(C(=O)N2CCOCC2)cc1 [Example 14, (R)-3-(3-(isonicotinamido)piperidin-1-yl)-5-(4-(morpholine-4-carbonyl)phenylamino)-1,2,4-triazine-6-carboxamide] | < 10
NC(=O)c1nnc(N2CCC[C@@H](NC(=O)c3ncccn3)C2)nc1Nc1ccc(C(=O)N2CCOCC2)cc1 [Example 15, (R)-5-(4-(morpholine-4-carbonyl)phenylamino)-3-(3-(pyrimidine-2-carboxamido)piperidin-1-yl)-1,2,4-triazine-6-carboxamide] | 10 to 100
NC(=O)c1nnc(N2CCC[C@@H](NC(=O)c3nccs3)C2)nc1Nc1ccc(C(=O)N2CCOCC2)cc1 [Example 16, (R)—N-(1-(6-carbamoyl-5-(4-(morpholine-4-carbonyl)phenylamino)-1,2,4-triazin-3-yl)piperidin-3-yl)thiazole-2-carboxamide] | < 10
NC(=O)c1nnc(N2CCC[C@@H](NC(=O)c3ccc(Cl)s3)C2)nc1Nc1ccc(C(=O)N2CCOCC2)cc1 [Example 17, (R)-3-(3-(5-chlorothiophene-2-carboxamido)piperidin-1-yl)-5-(4-(morpholine-4-carbonyl)phenylamino)-1,2,4-triazine-6-carboxamide] | < 10
NC(=O)c1nnc(N2CCC[C@@H](NC(=O)c3ccn4ccnc4c3)C2)nc1Nc1ccc(C(=O)N2CCOCC2)cc1 [Example 20, (R)—N-(1-(6-carbamoyl-5-(4-(morpholine-4-carbonyl)phenylamino)-1,2,4-triazin-3-yl)piperidin-3-yl)imidazo[1,2-a]pyridine-7-carboxamide] | 10 to 100
CC#CC(=O)N[C@@H]1CCCN(c2nnc(C(N)=O)c(Nc3ccc(C(=O)N4CCOCC4)cc3)n2)C1 [Example 23, (R)-3-(3-but-2-ynamidopiperidin-1-yl)-5-(4-(morpholine-4-carbonyl)phenylamino)-1,2,4-triazine-6-carboxamide] | 10 to 100
CC(C)C(=O)N[C@@H]1CCCN(c2nnc(C(N)=O)c(Nc3ccc(C(=O)N4CCOCC4)cc3)n2)C1 [Example 24, (R)-3-(3-isobutyramidopiperidin-1-yl)-5-(4-(morpholine-4-carbonyl)phenylamino)-1,2,4-triazine-6-carboxamide] | 10 to 100
NC(=O)c1nnc(N2CCC[C@@H](NC(=O)C3CC3)C2)nc1Nc1ccc(C(=O)N2CCOCC2)cc1 [Example 25, (R)-3-(3-(cyclopropanecarboxamido)piperidin-1-yl)-5-(4-(morpholine-4-carbonyl)phenylamino)-1,2,4-triazine-6-carboxamide] | 10 to 100
N#CC1(C(=O)N[C@@H]2CCCN(c3nnc(C(N)=O)c(Nc4ccc(C(=O)N5CCOCC5)cc4)n3)C2)CC1 [Example 28, (R)-3-(3-(1-cyanocyclopropanecarboxamido)piperidin-1-yl)-5-(4-(morpholine-4-carbonyl)phenylamino)-1,2,4-triazine-6-carboxamide] | 10 to 100
NC(=O)c1nnc(N2CCC[C@@H](NC(=O)C3CCCC3)C2)nc1Nc1ccc(C(=O)N2CCOCC2)cc1 [Example 29, (R)-3-(3-(cyclopentanecarboxamido)piperidin-1-yl)-5-(4-(morpholine-4-carbonyl)phenylamino)-1,2,4-triazine-6-carboxamide] | 10 to 100
NC(=O)c1nnc(N2CCC[C@@H](NC(=O)C3CCOCC3)C2)nc1Nc1ccc(C(=O)N2CCOCC2)cc1 [Example 30, (R)-5-(4-(morpholine-4-carbonyl)phenylamino)-3-(3-(tetrahydro-2H-pyran-4-carboxamido)piperidin-1-yl)-1,2,4-triazine-6-carboxamide] | 10 to 100
CN1CCC(C(=O)N[C@@H]2CCCN(c3nnc(C(N)=O)c(Nc4ccc(C(=O)N5CCOCC5)cc4)n3)C2)CC1 [Example 31, (R)-3-(3-(1-methylpiperidine-4-carboxamido)piperidin-1-yl)-5-(4-(morpholine-4-carbonyl)phenylamino)-1,2,4-triazine-6-carboxamide] | 10 to 100
NC(=O)c1nnc(N2CCC[C@@H](NC(=O)C3CCN(C4CC4)CC3)C2)nc1Nc1ccc(C(=O)N2CCOCC2)cc1 [Example 32, (R)-3-(3-(1-cyclopropylpiperidine-4-carboxamido)piperidin-1-yl)-5-(4-(morpholine-4-carbonyl)phenylamino)-1,2,4-triazine-6-carboxamide] | 10 to 100
NC(=O)c1nnc(N2CCC[C@@H](NC(=O)C3CCN(C4CCCC4)CC3)C2)nc1Nc1ccc(C(=O)N2CCOCC2)cc1 [Example 33, (R)-3-(3-(1-cyclopentylpiperidine-4-carboxamido)piperidin-1-yl)-5-(4-(morpholine-4-carbonyl)phenylamino)-1,2,4-triazine-6-carboxamide] | 10 to 100
NC(=O)c1nnc(N2CCC[C@@H](NC(=O)N3CCCC3)C2)nc1Nc1ccc(C(=O)N2CCOCC2)cc1 [Example 35, (R)-5-(4-(morpholine-4-carbonyl)phenylamino)-3-(3-(pyrrolidine-1-carboxamido)piperidin-1-yl)-1,2,4-triazine-6-carboxamide] | 10 to 100
NC(=O)c1nnc(N2CCC[C@@H](NC(=O)N3CCC(N4CCCCC4)CC3)C2)nc1Nc1ccc(C(=O)N2CCOCC2)cc1 [Example 37, (R)—N-(1-(6-carbamoyl-5-(4-(morpholine-4-carbonyl)phenylamino)-1,2,4-triazin-3-yl)piperidin-3-yl)-1,4′-bipiperidine-1′-carboxamide] | 10 to 100
NC(=O)c1nnc(N2CCC[C@@H](NC(=O)N3CCOCC3)C2)nc1Nc1ccc(C(=O)N2CCOCC2)cc1 [Example 38, (R)—N-(1-(6-carbamoyl-5-(4-(morpholine-4-carbonyl)phenylamino)-1,2,4-triazin-3-yl)piperidin-3-yl)morpholine-4-carboxamide] | 10 to 100
CN(C(=O)N[C@@H]1CCCN(c2nnc(C(N)=O)c(Nc3ccc(C(=O)N4CCOCC4)cc3)n2)C1)c1ccccc1 [Example 39, (R)-3-(3-(3-methyl-3-phenylureido)piperidin-1-yl)-5-(4-(morpholine-4-carbonyl)phenylamino)-1,2,4-triazine-6-carboxamide] | 10 to 100
NC(=O)c1nnc(N2CCC[C@@H](NS(=O)(=O)c3ccccc3)C2)nc1Nc1ccc(C(=O)N2CCOCC2)cc1 [Example 41, (R)-5-(4-(morpholine-4-carbonyl)phenylamino)-3-(3-(phenylsulfonamido)piperidin-1-yl)-1,2,4-triazine-6-carboxamide] | < 10
NC(=O)c1nnc(N2CCC[C@@H](N3CCCC3=O)C2)nc1Nc1ccc(C(=O)N2CCOCC2)cc1 [Example 44, (R)-5-(4-(morpholine-4-carbonyl)phenylamino)-3-(3-(2-oxopyrrolidin-1-yl)piperidin-1-yl)-1,2,4-triazine-6-carboxamide] | 10 to 100
NC(=O)c1nnc(N2CCC[C@@H](Oc3nccc4ccccc34)C2)nc1Nc1ccc(C(=O)N2CCOCC2)cc1 [Example 45, (R)-3-(3-(isoquinolin-1-yloxy)piperidin-1-yl)-5-(4-(morpholine-4-carbonyl)phenylamino)-1,2,4-triazine-6-carboxamide] | 100 to 1000
CC(C)OC(=O)NN(C(=O)OC(C)C)[C@@H]1CCCN(c2nnc(C(N)=O)c(Nc3ccc(C(=O)N4CCOCC4)cc3)n2)C1 [Example 46, (R)-diisopropyl 1-(1-(6-carbamoyl-5-(4-(morpholine-4-carbonyl)phenylamino)-1,2,4-triazin-3-yl)piperidin-3-yl)hydrazine-1,2-dicarboxylate] | 10 to 100
NC(=O)c1nnc(N2CCC[C@@H](n3ccc4cc(C5CC5)cc(F)c4c3=O)C2)nc1Nc1ccc(C(=O)N2CCOCC2)cc1 [Example 47, (R)-3-(3-(6-cyclopropyl-8-fluoro-1-oxoisoquinolin-2(1H)-yl)piperidin-1-yl)-5-(4-(morpholine-4-carbonyl)phenylamino)-1,2,4-triazine-6-carboxamide] | < 10
NC(=O)c1nnc(N2CCC[C@@H](Oc3nccc4cc(C5CC5)cc(F)c34)C2)nc1Nc1ccc(C(=O)N2CCOCC2)cc1 [Example 48, (R)-3-(3-(6-cyclopropyl-8-fluoroisoquinolin-1-yloxy)piperidin-1-yl)-5-(4-(morpholine-4-carbonyl)phenylamino)-1,2,4-triazine-6-carboxamide] | 100 to 1000
